# Assays:
# HEK293FT cells = assay: HGind-H composed of two plasmids transfected into HEK293FT cells, D2eGFP fluorescence intensity after D-2-HG addition; assay type: cell-based; details: ratio 0.4
# Experimental: (3) The plasmid was transfected into HEK293FT cells with lipofectamine 3000; a transfection plasmid combination 1 was pCDNA3.1(+)-DhdR-KRAB and pCDNA3.1(+)-DhdO10-D2eGFP or a plasmid combination 2 was pCDNA3.1(+)-KRAB-DhdR and pCDNA3.1(+)-DhdO10-D2eGFP; 3*105/well of cells were seeded in a 12-well plate, pcDNA3.1(+)-DhdO10-D2eGFP was added at lug/well, and the ratio of the recombinant transcriptional repressor plasmid to PcDNA3.1(+)-DhdO10-D2eGFP was 0:1, 1:1, 3:1.
# (4) On the next day, D-2-HG was added at concentrations of 0 mM, 1 mM, 5 mM, and 10 mM; 64 h after transfection, a fluorescence microscope was used to take pictures, the supernatant was aspirated, a fluorescence microplate reader measured fluorescence intensities, and results were shown in FIG. 2.
# (1) pCDNA3.1(+)-DhdR-KRAB and pCDNA3.1(+)-DhdO10-D2eGFP were selected, and then transfected using liposomes as above; the ratio of the two plasmids was set to 0, 0.1, 0.3, 0.4, 0.5, 0.75, 1.
# (2) On the next day, D-2-HG was added at concentrations of 0 mM and 5 mM; and 64 h after transfection, a fluorescence microscopy was used to take pictures, the supernatant was aspirated, and a fluorescence microplate reader measured a fluorescence intensity. […]
# (2) On the next day, D-2-HG was added at concentrations of 0, 0.5, 1, 5, 10, and 20 mM; and a fluorescence microplate reader measured a fluorescence intensity.
# HT1080-DHDO14 tumor = assay: HGind-H control of suicide gene in animals, HT1080 vs HT1080-DHDO14 tumors with GCV; assay type: in vivo, Balb/c nude crlj; details: GCV 50 mg/kg per day i.p.
# Experimental: (1) 18 Balb/c nude crlj which are male and 5 weeks old were purchased. HT1080 and HT-1080-DHDO14 cells were resuspended with PBS and injected at 1.5×10^6 cells/side*mouse (volume: 100 μl), where HT1080 was injected into the left backs of the mice and HT1080-DHDO14 was injected into the right backs of the mice.
# (2) The mice were divided into two groups, the control group (n=8) was injected with normal saline, and the experimental group (n=10) was injected with ganciclovir (GCV).
# (3) From the 5th to the 12th day of tumor model construction, each mouse in the control group was intraperitoneally injected with normal saline at 100 μl/day, and each mouse in the experimental group was intraperitoneally injected with GCV at 50 mg/kg per day. Starting from the 8th day, the long and short diameters of tumors of the mice were measured every day.
# (4) The mice were killed on the 14th day and the tumors of the mice were weighed.
SMILES,"fluorescence intensity (D2eGFP expression) (HEK293FT cells; 0.5 mM D-2-HG vs 0 mM group, pCDNA3.1(+)-DhdR-KRAB and DhdO7-D2eGFP)","fluorescence intensity (D2eGFP expression), dose response (HEK293FT cells; D-2-HG 0, 0.5, 1, 5, 10, 20 mM)",size of HT1080-DHDO14 tumor vs HT1080 tumor on the left side (HT1080-DHDO14 tumor; day 5 to 12),volume of the HT1080-DHDO14 tumor vs the other three groups (HT1080-DHDO14 tumor; later stage of measurement),weight of the HT1080-DHDO14 tumor vs the other 3 groups (HT1080-DHDO14 tumor; mice killed on the 14th day)
"O=C(O)CC[C@@H](O)C(=O)O [D-2-HG, D-2-hydroxyglutarate]",significant difference,"as the concentration increases, the fluorescence intensity becomes larger and larger",–,–,–
"Nc1nc(O)c2ncn(COC(CO)CO)c2n1 [GCV, ganciclovir]",–,–,significantly smaller,significantly less,significantly less
